# “And” between values parts separate entries of the source, which are not always exact repeats. Equal values may be shown once.
# Assays:
# [1] = system: Pentagastrin-Induced Gastric Acid Secretion; experiment: Continuous pentagastrin infusion model: gastric acid output after single i.v. dose; assay type: in vivo, human; details: for Acid Output, Treatment Period 0-6 h / Acid Output, Treatment Period 6-12 h / Acid Output, Treatment Period 12-18 h / Acid Output, Treatment Period 18-24 h: continuous PG 1 μg/kg/h, mean ± SD; for duration of action (time AO remained <10 mEq/h) / onset of response (time until AO decreased to <10 mEq/h and remained below for 1 h): mean±SD
# Description: After 60 min of pentagastrin infusion, subjects received a single dose of i.v. pantoprazole (20, 40, 80, or 120 mg), i.v. famotidine (20 mg), or saline placebo. […] The study protocol was approved by the UCLA Institutional Review Board and conducted according to the provisions of the Declaration of Helsinki and its amendments. Written informed consent was obtained from each participant before enrollment, and the identity of each patient was kept confidential. Each subject underwent a prestudy screening that included a physical examination, electrocardiogram (ECG), laboratory blood and urine analysis, and a pregnancy test for women. The laboratory test included a complete blood count, blood chemistry tests, a test for human immunodeficiency virus, a screening for hepatitis B and C, and a urine drug screen. Subjects were excluded from the study if abnormalities in these parameters were detected. Maximum AO (MAO) were also determined during the screening period. MAO was estimated by the subcutaneous injection of PG (6 μg/kg), after which four 15-min samples were collected and analyzed (Table 1). […] Subjects who completed the screening examination and were eligible for the study were assigned to one of six treatment groups to receive i.v. doses of pantoprazole (20, 40, 80, or 120 mg), i.v. famotidine (20 mg), or placebo (normal saline). […] To stimulate MAO, subjects received an infusion of PG for 25 h (Peptavalon, Wyeth-Ayerst; 1.0 μg/kg/h) begun 1 h before the start of the study drug infusion. Gastric aspirates were collected by means of nasogastric (NG) tube in 15-min fractions from 1 h before study drug treatment through the end of treatment h 2 and in 30 min fractions from h 3 through the end of h 24. The variables measured were onset of response (time until AO decreased to <10 mEq/h and remained below this level for 1 h), duration of response (time from onset until time when AO levels rose to >10 mEq/h and remained so for 1 h), and cumulative AO 15 over 24 h. […] On the evening before study day 1, participants were admitted to the UCLA Clinical Research Center. […] PG administration and MAO analyses were performed. […] Because no fluid or food p.o. was permitted during the study period, subjects received maintenance i.v. fluid to prevent dehydration. Vital signs and electrolytes were monitored during this time. […] (1973) Dig. […] Because this was an exploratory study, statistical analysis consisted of presenting means and standard deviations.
# [2] = Adverse event monitoring in the pentagastrin infusion study; assay type: in vivo, human; details: for subjects who withdrew because of adverse events: healthy subjects under continuous PG infusion
# Excerpt: Adverse events were monitored continuously in the Clinical Research Center. Treatment-emergent adverse events were defined as adverse events not present at baseline or events present at baseline that worsened during treatment.
# [3] = molecular target: T1, CCKB/gastrin receptor (Rattus norvegicus, UniProt P30553); experiment: Intrarenal gastrin infusion: renal hemodynamics, sodium excretion and urine volume; assay type: in vivo; details: L-365,260 80 pmoles/kg bolus after gastrin infusion
# T1 construct: act specifically at CCKB/gastrin receptors on renal tubular cells; from tissue; host or cells: kidney of living male Wistar-Kyoto rats (in vivo)
# T1 sequence (P30553 1-452): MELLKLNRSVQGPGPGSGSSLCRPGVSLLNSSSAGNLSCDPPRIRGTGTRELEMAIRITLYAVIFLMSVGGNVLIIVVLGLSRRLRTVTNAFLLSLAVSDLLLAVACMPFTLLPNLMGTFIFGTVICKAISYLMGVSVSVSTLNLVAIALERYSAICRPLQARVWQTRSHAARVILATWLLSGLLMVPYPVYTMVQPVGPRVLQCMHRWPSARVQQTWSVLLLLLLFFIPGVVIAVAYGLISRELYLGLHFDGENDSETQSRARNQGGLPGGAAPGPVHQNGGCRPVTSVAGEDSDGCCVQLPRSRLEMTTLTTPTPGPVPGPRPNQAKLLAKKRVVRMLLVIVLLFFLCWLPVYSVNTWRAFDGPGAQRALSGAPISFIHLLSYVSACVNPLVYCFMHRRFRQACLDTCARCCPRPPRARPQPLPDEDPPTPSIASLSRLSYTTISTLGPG
# Description: (§1) Male Wistar-Kyoto rats (300 grams, 10-12 weeks old) (Harlan Sprague Dawley, Indianapolis, Ind.) were maintained on a regular Purina rat chow diet. Catheters were placed into the external jugular and femoral veins and left carotid artery and systemic arterial pressure was monitored. The right suprarenal artery was cannulated with a PE-10 catheter heat stretched to 180 mm and a flow catheter was secured around the right renal artery (Transonic Systems, Ithaca, N.Y.). GFR was determined after an intravenous infusion of normal saline containing [^14C]-inulin (0.01 mCi/10 ml (New England Nuclear, Boston, Mass.) at a rate of 5 ml/100 g body wt. for 30 minutes followed by an infusion of 1.8 ml/100 g body wt/hr). After an equilibration period of 120 minutes, 20 minute collections were begun. Meal gavage studies were performed with 2.5 ml/hr of liquefied rat chow administered via gastric tube. Gastrin 17-1 (Peninsula Laboratories, CA) was diluted in normal saline and infused (10 pmoles/kg/hr) via the right renal artery catheter. Following a basal period, rats received either L-365,260 (80 pmoles/kg, 5 min bolus) or vehicle alone and 20 minute collection periods were begun for determination of sodium and water excretion.
# [4] = molecular target: T1, CCKB/gastrin receptor; experiment: Meal gavage: renal hemodynamics, sodium excretion and urine volume; assay type: in vivo
# Description: as §1
# [5] = system: Na+-K+-ATPase; experiment: Na+-K+-ATPase activity in isolated renal tubules after meal; assay type: biochemical, rat; details: direct intrarenal infusion 80 pmoles/kg prior to the meal
# Description: Renal tubules (cortical and medullary thick ascending limb of Henle) were isolated (Slobodyansky et al. (1995) Am. J. Physiol. 268: F279-F284) and immediately homogenized (in a Polytron) in 4° C. reaction buffer [4 mM MgCl2, 100 mM tris(hydroxymethyl)aminomethane HCl, pH7.2]. The dephosphorylation of tris(hydroxymethyl)aminomethane-p-nitrophenyl-phosphate was used as the index of Na^+-K^+-ATPase activity (Eisner et al. (1997) Am. J. Physiol. 273: R317-R323).
# [6] = cited from earlier work
# [7] = 80 pmoles/kg bolus, more than 5-fold with meal alone
# [8] = L-365,260 80 pmoles/kg 5 min bolus before meal gavage
# [9] = single i.v. doses 80 and 120 mg
smiles,measurement,setting,value
"NC(N)=Nc1nc(CSCCC(N)=NS(N)(=O)=O)cs1 [Famotidine, famotidine]",Peak inhibition of acid output,[1]; single i.v. dose 20 mg,94%
same,hourly AO averaged over the 24-h period,[1]; single i.v. dose 20 mg,18.2 mEq/h
same,loss of acid-suppressing effectiveness,[1]; single i.v. dose 20 mg,lost effectiveness after 6 h
same,"Acid Output, Treatment Period 0-6 h",[1]; single i.v. dose 20 mg,4.4 ± 2.5 mEq/h
same,"Acid Output, Treatment Period 6-12 h",[1]; single i.v. dose 20 mg,17.7 ± 5.1 mEq/h
same,"Acid Output, Treatment Period 12-18 h",[1]; single i.v. dose 20 mg,25.8 ± 9.3 mEq/h
same,"Acid Output, Treatment Period 18-24 h",[1]; single i.v. dose 20 mg,25.0 ± 10.4 mEq/h
same,duration of action (time AO remained <10 mEq/h),[1]; single i.v. dose 20 mg,6.5 ± 2.1 h
same,onset of response (time until AO decreased to <10 mEq/h and remained below for 1 h),[1]; single i.v. dose 20 mg,0.5 ± 0.2 h
same,subjects who withdrew because of adverse events,[2],No subjects
same,adverse events reported,[2]; i.v. 20 mg group under continuous PG infusion,Three subjects from the famotidine group complained of abdominal pain and dyspepsia and were noted to have small amounts of blood in their NG aspirate
"Cc1cccc(NC(=O)N[C@@H]2N=C(c3ccccc3)c3ccccc3N(C)C2=O)c1 [L-365,260]",effect on gastrin-stimulated FeNa,[3],returned to near baseline values
same,effect on gastrin-stimulated changes in urine flow rate,[3],completely antagonized
same,effect on gastrin-stimulated elevation in urinary excretion of sodium,[3],returned to near baseline values
same,inhibition of meal-stimulated increase in sodium and water excretion,[4]; 80 pmoles/kg bolus,up to 80%
same,effect on meal-stimulated increase in urine flow rate,"[4]; 80 pmoles/kg bolus, compared to vehicle alone",nearly completely inhibited
same,meal-stimulated increase in fractional excretion of sodium (FeNa) in presence of antagonist,[4]; [7],2 fold
same,meal-stimulated increase in urinary sodium (UNaV) in presence of antagonist,[4]; [7],2 fold
same,effect on meal-induced increase in glomerular filtration rate (GFR),[4]; [8],inhibited
same,effect on meal-induced increase in renal blood flow (RBF),[4]; [8],inhibited
same,effect on Mean Arterial Pressure (MAP),"[4]; meal gavage study period, 80 pmoles/kg bolus",No effect
same,effect on meal induced inhibition of Na+/K+-ATPase activity,[5],complete reversal
"COc1ccnc(C[S+]([O-])c2nc3ccc(OC(F)F)cc3[nH]2)c1OC (stereo not shown) [Pantoprazole, pantoprazole]",AO suppressed to,"[1]; 80 and 120 mg doses, all subjects, after 1 h and for the full 24-h period",< 10 mEq/h
same,AO suppressed to,"[1]; all i.v. doses (20, 40, 80, 120 mg)",< 10 mEq/h
same,time after administration at which acid-suppressing activity was observed,"[1]; i.v., in general",15 to 20 min
same,Peak inhibition of acid output,[1]; single i.v. dose 20 mg,83%
same,hourly AO averaged over the 24-h period,[1]; single i.v. dose 20 mg,11.9 mEq/h
same,"Acid Output, Treatment Period 0-6 h",[1]; single i.v. dose 20 mg,11.7 ± 10.5 mEq/h
same,"Acid Output, Treatment Period 6-12 h",[1]; single i.v. dose 20 mg,13.6 ± 13.3 mEq/h
same,"Acid Output, Treatment Period 12-18 h",[1]; single i.v. dose 20 mg,15.1 ± 13.7 mEq/h
same,"Acid Output, Treatment Period 18-24 h",[1]; single i.v. dose 20 mg,14.2 ± 8.6 mEq/h
same,duration of action (time AO remained <10 mEq/h),[1]; single i.v. dose 20 mg,8.4 ± 8.0 h
same,Peak inhibition of acid output,[1]; single i.v. dose 40 mg,90%
same,hourly AO averaged over the 24-h period,[1]; single i.v. dose 40 mg,7.6 mEq/h
same,"Acid Output, Treatment Period 0-6 h",[1]; single i.v. dose 40 mg,8.1 ± 5.4 mEq/h
same,"Acid Output, Treatment Period 6-12 h",[1]; single i.v. dose 40 mg,4.8 ± 4.0 mEq/h
same,"Acid Output, Treatment Period 12-18 h",[1]; single i.v. dose 40 mg,7.3 ± 4.1 mEq/h
same,"Acid Output, Treatment Period 18-24 h",[1]; single i.v. dose 40 mg,10.1 ± 3.7 mEq/h
same,Peak inhibition of acid output,[1]; single i.v. dose 80 mg,99%
same,hourly AO averaged over the 24-h period,[1]; single i.v. dose 80 mg,3.3 mEq/h
same,"Acid Output, Treatment Period 0-6 h",[1]; single i.v. dose 80 mg,2.4 ± 1.5 mEq/h
same,"Acid Output, Treatment Period 6-12 h",[1]; single i.v. dose 80 mg,1.2 ± 0.6 mEq/h
same,"Acid Output, Treatment Period 12-18 h",[1]; single i.v. dose 80 mg,3.7 ± 1.9 mEq/h
same,"Acid Output, Treatment Period 18-24 h",[1]; single i.v. dose 80 mg,6.1 ± 3.2 mEq/h
same,duration of action (time AO remained <10 mEq/h),[1]; single i.v. dose 80 mg,21.2 ± 1.9 h
same,onset of response (time until AO decreased to <10 mEq/h and remained below for 1 h),[1]; single i.v. dose 80 mg,0.8 ± 0.3 h
same,Peak inhibition of acid output,[1]; single i.v. dose 120 mg,100%
same,hourly AO averaged over the 24-h period,[1]; single i.v. dose 120 mg,2.4 mEq/h
same,"Acid Output, Treatment Period 0-6 h",[1]; single i.v. dose 120 mg,1.3 ± 0.8 mEq/h
same,"Acid Output, Treatment Period 6-12 h",[1]; single i.v. dose 120 mg,0.7 ± 0.2 mEq/h
same,"Acid Output, Treatment Period 12-18 h",[1]; single i.v. dose 120 mg,3.7 ± 0.7 mEq/h
same,"Acid Output, Treatment Period 18-24 h",[1]; single i.v. dose 120 mg,5.2 ± 0.4 mEq/h
same,onset of response (time until AO decreased to <10 mEq/h and remained below for 1 h),[1]; single i.v. dose 120 mg,0.4 ± 0.2 h
same,duration of acid output suppression,[1]; [9],> 20 h
same,onset of action,[1]; [9],< 1 h
same,suppression of acid output,"[1]; single i.v. doses 80 and 120 mg, all subjects",99-100%
same,suppression of acid output,"[1]; single i.v. doses 80 and 120 mg, all subjects, listed as pantoprazole",> 90%
same,duration of acid output suppression,"[1]; single i.v. doses 80 and 120 mg, listed as pantoprazole",~24 h and < 21 h
same,subjects who withdrew because of adverse events,[2],Three
"CSCC[C@H](NC(=O)[C@H](Cc1c[nH]c2ccccc12)NC(=O)CCNC(=O)OC(C)(C)C)C(=O)N[C@@H](CC(=O)O)C(=O)N[C@@H](Cc1ccccc1)C(N)=O [Pentagastrin, N-t-butyloxycarbonyl-Beta-alanyl-L-tryptophyl-L-methionyl-L-aspartyl-L-phenyl-alanyl amide]",solubility in dimethylformamide and dimethylsulfoxide,[6],soluble
same,"solubility in water, ethanol, ether, benzene, chloroform, ethyl acetate",[6],almost insoluble

# Reference: patent US7807623B2, “Use of pentagastrin to inhibit gastric acid secretion or as a diuretic” (The Regents of the University of California, priority 1999, dated 2010)
